Results: ChEMBL document CHEMBL4376876 (J Med Chem, 2020)

Each compound was assayed against Enoyl-[acyl-carrier-protein] reductase [NADH] (Mycobacterium tuberculosis, UniProt P9WGR1, S94A).

| Compound | IC50 [µM] |
| --- | --- |
| CC(C)[C@H]1OC(=O)[C@H](C)[C@H](O)[C@H](Cc2cccnc2)NC(=O)[C@@H](NC(=O)c2ncccc2O)[C@@H](C)OC1=O | 32.8 |
| CC[C@H]1OC(=O)[C@H](C)[C@H](O)[C@H](Cc2cccnc2)NC(=O)[C@@H](NC(=O)c2ncccc2O)[C@@H](C)OC1=O | 127 |
| CC[C@@H](C)[C@H]1OC(=O)[C@H](C)[C@H](O)[C@H](Cc2cccnc2)NC(=O)[C@@H](NC(=O)c2ncccc2O)[C@@H](C)OC1=O | 31.5 |
| C[C@@H]1C(=O)N[C@H](C2CCCCC2)C(=O)O[C@H](C)[C@H](NC(=O)c2ncccc2O)C(=O)N[C@@H](Cc2cccnc2)[C@@H]1O | 291 |
| C[C@H]1OC(=O)[C@@H](Cc2ccccc2)OC(=O)[C@H](C)[C@H](O)[C@H](Cc2cccnc2)NC(=O)[C@H]1NC(=O)c1ncccc1O | 29.1 |
| CC[C@H](C)[C@H]1OC(=O)[C@H](C)[C@H](O)[C@H](Cc2cccnc2)NC(=O)[C@@H](NC(=O)c2ncccc2O)[C@@H](C)OC1=O | 87.2 |
